According to a melting point compilation (Tetko et al.; mined from patent text by program, amines drawn as free bases though some values may be those of a salt):

Structure (SMILES) | melting point [°C]
COc1cc(OS(=O)(=O)c2ccc(N3CCN(C)C3=O)cc2)cc(OC)c1OC | 160 to 162
Cc1ccc(N=c2ccn3ccccc3c2)cc1C | 185 to 187
CC(c1ccc(C(F)(F)F)nc1)S(C)=NC#N (stereo unspecified) | 78 to 80
COC(=O)c1nnn(C)c1C(=O)OC | 63 to 64
CSc1ccc2cc(C(=O)c3ccccc3)cc(CCNC(C)=O)c2c1 | 126 to 128
COC(=O)C(Cc1ccccc1)NC(=O)C(N)(CC(=O)O)C(=O)N1CCCCC1 (stereo unspecified) | 225 to 227
Cc1nn(-c2cccc(C(F)(F)F)c2)cc1C(=O)N(CC(=O)O)c1ccc(OCC(C)(C)C)c(C#N)c1 | 110 to 112
O=C(CCCCCCOc1ccc2c(c1)[nH]c1ccccc12)NO | 198
CCNC1([C@@H]2CCN(c3ccc4c(=O)c(C(=O)O)cn([C@@H]5C[C@@H]5F)c4c3C)C2)CC1 | 191 to 194
CC(C)(C)OC(=O)N[C@@H](Cc1ccnc(C#N)c1)C(=O)OCc1ccccc1 | 74 to 76
CC(=O)Oc1nsnc1-c1c(Cl)cccc1Cl | 56 to 59
CN(C(=O)C(F)(F)F)C(C(=O)O)c1ccccc1 (stereo unspecified) | 124 to 126
Oc1ccc(C(F)(F)C(F)(F)C(F)(F)/C=C/C(F)(F)C(F)(F)C(F)(F)c2ccc(O)cc2)cc1 | 134 to 138
O=C(Cl)c1cn(CCCCl)c(=O)c2ccccc12 | 101
O=c1ccc(-c2ccc3c(c2)CCN(C2CCC2)CC3)n[nH]1 | 250 to 251
Cc1c(O)c(C(C)(C)C)c(Cc2cc(C(C)(C)C)c(O)c(C(C)(C)C)c2)c(C)c1Cc1cc(C(C)(C)C)c(O)c(C(C)(C)C)c1 | 140
CCOCc1nc2c(N)nc3cc(-c4cccc(C(=O)N5CCOCC5)c4)ccc3c2n1CC(C)(C)O | 152 to 154
O=[N+]([O-])c1cc2n(n1)CCOC2 | 110 to 112
COc1cc2c(cc1OC)CN(CCc1ccc(N)cc1)C2 | 150
CON1C(C)(C)CC(OC(=O)CCc2cc(-n3nc4ccccc4n3)c(O)c(C(C)(C)C)c2)CC1(C)C | 135 to 137
O=C1NCc2cc(C(=O)c3ccccc3)ccc2N1 | 265
OCc1cc(-c2cnn3c(C(F)(F)F)cc(-c4ccc(Cl)c(Cl)c4)nc23)ccn1 | 233
Cc1ncncc1C(=O)Nc1ccc(-n2nc(C3CC3)cc2C2CC2)cc1 | 89 to 95
O=c1nc(C2CCCCC2)c2cc(Cl)ccc2[nH]1 | 270
c1ccc(Cn2nc(-c3ccco3)c3cncnc32)cc1 | 106
Cc1nc2c(O[C@@H]3c4ccccc4CC[C@H]3O)cccn2c1CC#N (relative stereo) | 154 to 155

Structure (SMILES) | melting point [°C]
COc1cccc(-c2nn(-c3ccccc3)c(-c3cccc(OC)c3)c2CC(=O)O)c1 | 129 to 131
CN1C(=O)C(O)(c2ccccc2)c2cccc(Cl)c21 (stereo unspecified) | 125 to 127
CCN(CC)Cc1ccc2[nH]c(-c3ccccc3)cc(=O)c2c1 | 228 to 230
Cc1cc(SCC#Cc2ccc(Cl)cc2)ccc1OCC(=O)O | 106 to 108
CN(CC(=O)O)c1ccc(C#N)cc1 | 64.5
NS(=O)(=O)c1cccc(-c2cn(-c3nc(-c4ccc(C(F)(F)F)nc4)cc(C(F)F)n3)cn2)c1 | 220
CC(O)c1cc2c(s1)C(=O)c1c(C(C)O)csc1C2=O (stereo unspecified) | 218 to 219
CNC(=O)Nc1ccsc1C(=O)OC | 141 to 142
CC(C(=O)O)C1CC(=O)N(c2ccc(Cl)cc2)C1 (stereo unspecified) | 63 to 67
CCN(CC)C(=O)COC(=O)/C=C/C(=O)OC | 53 to 56
COC1CC2(C)C(CCC3C4CC=C(C(C)=O)C4(C)CC(=O)C32)CC1O (stereo unspecified) | 159 to 163
CCS(=O)(=O)c1cccc(-c2nc(=O)c3ccccc3s2)n1 | 202 to 203
COC(=O)C(=CN1c2ccc(F)c(F)c2OCC1C)C(=O)OC (stereo unspecified) | 146 to 147
CCOC(=O)c1c(CN(CC)CC)nc2sc3cnccc3c2c1-c1ccc(O)c(OC)c1 | 179 to 181
CN(C)C1CCc2[nH]c3cc(F)ccc3c2C1 (stereo unspecified) | 174 to 176
S=C1Nc2ccccc2Cc2nccn21 | 182 to 183
CN1C(=O)C(NC(=O)c2ccccc2)C(C)(C)SC1=S (stereo unspecified) | 184 to 185
O=C(O)c1ccc2c(c1)nc(-c1ccc(OCc3cc(Cl)ccc3-c3ccc(Cl)cc3)cc1)n2C1CCCCC1 | 243 to 244
CCOC(=O)C1=C(N)N=C(OCC)C(C(=O)OCC)C1c1ccco1 (stereo unspecified) | 110
O=C(NCCO)C(=O)NCCO | 166 to 169
COc1ccc2cc([C@H](C)C(=O)Oc3ccc(OCCO[N+](=O)[O-])cc3)ccc2c1 | 141 to 142
CCOC(=O)c1ccc(N2Cc3ccccc3C2=O)cc1 | 182 to 184
N#Cc1ccc(C(=CC(=O)N2CCCCC2)n2ccnc2)cc1 | 160 to 165
Cc1ccc(S(=O)(=O)NCc2ccc(C(=O)CBr)cc2)cc1 | 116 to 117
Cc1ccc(O)c2[nH]c(Cc3cccnc3)nc12 | 264 to 268
CCOC(=O)Cn1c(=O)n(Cc2ccc(Cl)cc2)c(=O)c2c(C)c(C)sc21 | 151 to 152

Structure (SMILES) | melting point [°C]
CC1(S(=O)(=O)C2(C)C=CC=CC2O)C=CC=CC1O (stereo unspecified) | 95 to 97
O=C(Oc1ccccc1)C(=O)Oc1ccccc1 | 132 to 135
COc1cc(-c2ccccc2)c(OCC(=O)O)c(-c2ccccc2)c1 | 143 to 145
c1ccc2c3c([nH]c2c1)C(c1ccc2c(c1)OCO2)NCC3 (stereo unspecified) | 173
C#Cc1cc(F)c(-n2c(=O)c(C)c(C(F)(F)F)n(C)c2=O)cc1NS(C)(=O)=O | 207 to 208
CCC1(CCCCCl)C(=O)Nc2c(Cl)cc(Cl)cc21 (stereo unspecified) | 65 to 67
O=C(O)c1[nH]c2ccc(Cl)cc2c1S(=O)c1ccccc1 (stereo unspecified) | 183 to 185
N#Cc1ccc2sc(CBr)nc2c1 | 185 to 186
CCNC(=O)[C@H](C)C[C@H](O)[C@H](CC1CCCCC1)NC(=O)[C@H](Cc1cscn1)NC(=O)[C@@H](CC(=O)N(C)Cc1ccccc1)Cc1ccccc1 | 148 to 150
O=C1CCC2=C(CCc3cc(F)ccc32)N1 | 223 to 224
COC(=O)C1=Cc2cc(Br)cnc2N2CCCC2CC1 (stereo unspecified) | 98 to 99
CNc1ccc(C(=O)c2ccccc2)cc1[N+](=O)[O-] | 198 to 201
O=C(O)C1CCc2[nH]c3ccccc3c2C1 (stereo unspecified) | 198 to 199
O=C(CCCl)Nc1cccc2c1C(=O)c1c(NC(=O)CCCl)cccc1C2=O | 248 to 249
COc1cc2c(C)csc2c(Cl)c1Cl | 122 to 124
CN1Cc2c(C#N)ncn2-c2cccc(Br)c2C1=O | 226 to 228
CC(C)(C)OC(=O)NC(Cc1ccccc1)C(=O)NC(Cc1ccccc1)C(=O)NCCc1c[nH]cn1 (stereo unspecified) | 175 to 177
CC1(C)CCc2c(-c3ccoc3)nc3sc4c(NCc5ccccn5)ncnc4c3c2C1 | 235 to 236
CC(=Nc1ccccc1C(C)C)Nc1ccccc1C(C)C | 94 to 96
CCCc1[nH]c2cc(C(N)=O)ccc2c1C(=O)C1CCC1 | 253 to 255
CN(C)C=CC(=O)c1ccc(OCC(O)CN2CCN(c3cccc(Cl)c3)CC2)cc1 (stereo unspecified) | 130 to 133
COC(=O)c1ccc(C(=O)NS(=O)(=O)c2ccc(CCNC(=O)c3ccccc3)cc2)cn1 | 228 to 230
O=C(CN1CCN(c2ncccn2)CC1)c1ccc(-c2cccc(C(F)(F)F)c2)nc1 | 124 to 126
COc1ccc(N2CCN(Cc3n[nH]c4ccccc34)CC2)nc1 | 132 to 134
CN1Cc2c(CCl)ncn2-c2ccccc2C1=O | 277 to 280
COc1ccc2oc(C(=O)NCc3ccccc3)c(OC(C)C)c2c1 | 68 to 69

Structure (SMILES) | melting point [°C]
N#Cc1ccc(C(=O)N2CCc3[nH]c4c(cnc5cc(Cl)ccc54)c3C2)cc1 | > 300
CCN(Cc1ccc(Cl)nc1)C(=NC)C(=Cc1ccco1)[N+](=O)[O-] | 155 to 156
COc1cc(CNC(=O)c2nc3cn(CCCc4ccccc4)nc3c(=O)[nH]2)ccc1F | 137 to 140
CCN(CCCc1ccccc1)[C@H]1CC[C@H](c2ccc(O)cc2)CC1 | 163 to 166
O=C(O)CCCn1ccc(=O)c(O)c1Cc1ccccc1 | 170 to 172
O=C1c2ccccc2C(=O)N1CCSCc1nccc(NC(=S)NCC(F)(F)F)n1 | 178 to 179
Cn1cc(C2(c3c4n(c5ccccc35)CCCCC4)CC(=O)NC2=O)c2ccccc21 (stereo unspecified) | > 300
O=C(OCCCc1ccccc1)c1ccc2c(c1)C(Cl)(Cl)c1cc(C(=O)OCCCc3ccccc3)ccc1-2 | 91 to 92
CC1CC(C)(C)OOC(C)(CCC(=O)NNC(=O)CCC(=O)O)O1 (stereo unspecified) | 122 to 126
CCCCCCCCCCC(O)C(=O)N[C@@H](CCCC)CCC(=O)O (stereo partly specified) | 53 to 55
CCOC(=O)c1cc(O)c2ccc3c(c2c1-c1cc(OC)c(OC)c(OC)c1)OCO3 | 151 to 152
O=C(N1CCOCC1)N1Cc2c(-c3nc(C4CC4)cs3)ncn2-c2ccccc21 | 193 to 194
O=Cc1cccc(-c2cc(-c3ccc(C(F)(F)F)cc3)no2)c1 | 151 to 152
COc1cc2c(cc1OC)C(=O)C(Br)C2 (stereo unspecified) | 159 to 160
CN(C)c1ccc(-n2ccn(C3CCc4ccccc4C3)c2=S)nn1 (stereo unspecified) | 198 to 199
COC(=O)c1cc2cc(OC)c(OC)cc2cn1 | 215
O=C(O)c1cc(C(=O)O)c2c(c1)C(C(=O)O)CCN2 (stereo unspecified) | 240 to 241
COCCOc1ccccc1-c1cc2[nH]c3ccc(O)cc3c2c2c1C(=O)NC2=O | 275 to 279
CCCCNC(=O)[C@@H]1C[C@]2(NC(=O)N(CCCN3CCC(O)CC3)C2=O)c2cc(F)ccc2O1 | 86 to 88
CC(CCc1ccc(F)cc1)NCc1c(CO)ccc(O)c1CO (stereo unspecified) | 101 to 103
Cc1cc(Nc2ccnc(Nc3ccc(S(=O)(=O)N(C)C4CCN(CCS(C)(=O)=O)CC4)cc3)n2)ccc1F | 114
O=C(NCC1CC1)c1[nH]c2ccc(Cl)cc2c1S(=O)(=O)c1ccccc1 | 232 to 234
Cc1c(C(=O)CBr)ncn1C | 276 to 277
